Test results as given in ChEMBL document CHEMBL3714713, “4-phenyl-pyrimido [4,5-b] indole derivatives” (2004).
The source made the active and inactive calls. No cut-off for these calls is given here.

test system: Mus musculus; assay: Inhibition of anti-CD3 antibody-induced IL4 production in Balb/c mouse dosed intravenously 5 mins before anti-CD3 antibody injection and measured 2 hrs post-challenge by ELISA; assay type: functional, organism-based

How did the Activity turn out when `CN(C)c1ccc(-c2ncnc3[nH]c4ccc(C#N)cc4c23)cc1` was run?
The Activity was “Active”.

`NC(=O)c1ccc2[nH]c3ncnc(-c4ccc(F)cc4)c3c2c1` was tested. Which Activity did it give?
Its Activity is “Active”.

For `COc1ccc2[nH]c3ncnc(-c4ccccc4)c3c2c1`, which Activity is on record?
Its Activity is “Active”.

`CN(C)c1ccc(-c2ncnc3[nH]c4ccc(C(N)=O)cc4c23)cc1` was tested. Which Activity did it give?
Its Activity is “Active”.

Which Activity does the source give for `NC(=O)c1ccc2[nH]c3ncnc(-c4ccccc4)c3c2c1` here?
Its Activity is “Active”.

How did the Activity turn out when `Oc1ccc2[nH]c3ncnc(-c4ccccc4)c3c2c1` was run?
Its Activity is “Active”.

For `COc1ccc(-c2ncnc3[nH]c4ccc(OC)cc4c23)cc1`, which Activity is on record?
The Activity was “Active”.

`N#Cc1ccc2[nH]c3nc(N)nc(-c4ccccc4)c3c2c1` was tested. Which Activity did it give?
Its Activity is “Active”.

How did the Activity turn out when `NC(=O)c1ccc2[nH]c3nc(N)nc(-c4ccccc4)c3c2c1` was run?
Its Activity is “Active”.

How did the Activity turn out when `COc1ccc(-c2ncnc3[nH]c4ccc(C#N)cc4c23)cc1` was run?
Its Activity is “Active”.

With `N#Cc1ccc2[nH]c3ncnc(-c4ccccc4)c3c2c1` as the compound, how does the Activity read?
The Activity was “Active”.

With `Oc1ccc2[nH]c3ncnc(-c4ccc(F)cc4)c3c2c1` as the compound, how does the Activity read?
The Activity was “Active”.

How did the Activity turn out when `COc1ccc(-c2ncnc3[nH]c4ccc(C(N)=O)cc4c23)cc1` was run?
The Activity was “Active”.

`N#Cc1ccc2[nH]c3ncnc(-c4cccc(N)c4)c3c2c1` was tested. Which Activity did it give?
The Activity was “Active”.

Which Activity does the source give for `N#Cc1ccc2[nH]c3ncnc(-c4ccc(F)cc4)c3c2c1` here?
The Activity was “Active”.

With `COc1ccc(-c2ncnc3[nH]c4ccc(O)cc4c23)cc1` as the compound, how does the Activity read?
Its Activity is “Active”.

With `NC(=O)c1ccc2[nH]c3ncnc(-c4cccc(N)c4)c3c2c1` as the compound, how does the Activity read?
Its Activity is “Active”.

test system: Mus musculus; assay: Inhibition of anti-CD3 antibody-induced IL2 production in Balb/c mouse dosed intravenously 5 mins before anti-CD3 antibody injection and measured 2 hrs post-challenge by ELISA; assay type: functional, organism-based

Which Activity does the source give for `CN(C)c1ccc(-c2ncnc3[nH]c4ccc(C#N)cc4c23)cc1` here?
Its Activity is “Active”.

`NC(=O)c1ccc2[nH]c3ncnc(-c4ccc(F)cc4)c3c2c1` was tested. Which Activity did it give?
Its Activity is “Active”.

`COc1ccc2[nH]c3ncnc(-c4ccccc4)c3c2c1` was tested. Which Activity did it give?
Its Activity is “Active”.

`CN(C)c1ccc(-c2ncnc3[nH]c4ccc(C(N)=O)cc4c23)cc1` was tested. Which Activity did it give?
Its Activity is “Active”.

Which Activity does the source give for `NC(=O)c1ccc2[nH]c3ncnc(-c4ccccc4)c3c2c1` here?
Its Activity is “Active”.

Which Activity does the source give for `Oc1ccc2[nH]c3ncnc(-c4ccccc4)c3c2c1` here?
The Activity was “Active”.

For `COc1ccc(-c2ncnc3[nH]c4ccc(OC)cc4c23)cc1`, which Activity is on record?
The Activity was “Active”.

For `N#Cc1ccc2[nH]c3nc(N)nc(-c4ccccc4)c3c2c1`, which Activity is on record?
The Activity was “Active”.

With `NC(=O)c1ccc2[nH]c3nc(N)nc(-c4ccccc4)c3c2c1` as the compound, how does the Activity read?
The Activity was “Active”.

Which Activity does the source give for `COc1ccc(-c2ncnc3[nH]c4ccc(C#N)cc4c23)cc1` here?
Its Activity is “Active”.

With `N#Cc1ccc2[nH]c3ncnc(-c4ccccc4)c3c2c1` as the compound, how does the Activity read?
Its Activity is “Active”.

For `Oc1ccc2[nH]c3ncnc(-c4ccc(F)cc4)c3c2c1`, which Activity is on record?
Its Activity is “Active”.

`COc1ccc(-c2ncnc3[nH]c4ccc(C(N)=O)cc4c23)cc1` was tested. Which Activity did it give?
Its Activity is “Active”.

Which Activity does the source give for `N#Cc1ccc2[nH]c3ncnc(-c4cccc(N)c4)c3c2c1` here?
The Activity was “Active”.

Which Activity does the source give for `N#Cc1ccc2[nH]c3ncnc(-c4ccc(F)cc4)c3c2c1` here?
The Activity was “Active”.

Which Activity does the source give for `COc1ccc(-c2ncnc3[nH]c4ccc(O)cc4c23)cc1` here?
The Activity was “Active”.

How did the Activity turn out when `NC(=O)c1ccc2[nH]c3ncnc(-c4cccc(N)c4)c3c2c1` was run?
Its Activity is “Active”.

test system: Mus musculus; assay: Inhibition of anti-CD3 antibody-induced IFNgamma production in Balb/c mouse dosed intravenously 5 mins before anti-CD3 antibody injection and measured 2 hrs post-challenge by ELISA; assay type: functional, organism-based

For `CN(C)c1ccc(-c2ncnc3[nH]c4ccc(C#N)cc4c23)cc1`, which Activity is on record?
Its Activity is “Active”.

Which Activity does the source give for `NC(=O)c1ccc2[nH]c3ncnc(-c4ccc(F)cc4)c3c2c1` here?
Its Activity is “Active”.

How did the Activity turn out when `COc1ccc2[nH]c3ncnc(-c4ccccc4)c3c2c1` was run?
The Activity was “Active”.

With `CN(C)c1ccc(-c2ncnc3[nH]c4ccc(C(N)=O)cc4c23)cc1` as the compound, how does the Activity read?
The Activity was “Active”.

Which Activity does the source give for `NC(=O)c1ccc2[nH]c3ncnc(-c4ccccc4)c3c2c1` here?
The Activity was “Active”.

How did the Activity turn out when `Oc1ccc2[nH]c3ncnc(-c4ccccc4)c3c2c1` was run?
Its Activity is “Active”.

With `COc1ccc(-c2ncnc3[nH]c4ccc(OC)cc4c23)cc1` as the compound, how does the Activity read?
Its Activity is “Active”.

For `N#Cc1ccc2[nH]c3nc(N)nc(-c4ccccc4)c3c2c1`, which Activity is on record?
The Activity was “Active”.

With `NC(=O)c1ccc2[nH]c3nc(N)nc(-c4ccccc4)c3c2c1` as the compound, how does the Activity read?
Its Activity is “Active”.

How did the Activity turn out when `COc1ccc(-c2ncnc3[nH]c4ccc(C#N)cc4c23)cc1` was run?
Its Activity is “Active”.

How did the Activity turn out when `N#Cc1ccc2[nH]c3ncnc(-c4ccccc4)c3c2c1` was run?
The Activity was “Active”.

For `Oc1ccc2[nH]c3ncnc(-c4ccc(F)cc4)c3c2c1`, which Activity is on record?
The Activity was “Active”.

With `COc1ccc(-c2ncnc3[nH]c4ccc(C(N)=O)cc4c23)cc1` as the compound, how does the Activity read?
The Activity was “Active”.

How did the Activity turn out when `N#Cc1ccc2[nH]c3ncnc(-c4cccc(N)c4)c3c2c1` was run?
Its Activity is “Active”.

With `N#Cc1ccc2[nH]c3ncnc(-c4ccc(F)cc4)c3c2c1` as the compound, how does the Activity read?
The Activity was “Active”.

How did the Activity turn out when `COc1ccc(-c2ncnc3[nH]c4ccc(O)cc4c23)cc1` was run?
Its Activity is “Active”.

How did the Activity turn out when `NC(=O)c1ccc2[nH]c3ncnc(-c4cccc(N)c4)c3c2c1` was run?
Its Activity is “Active”.

molecular target: T1, Dual specificity mitogen-activated protein kinase kinase 7 (Homo sapiens, UniProt O14733); assay: Inhibition of GST-tagged human MKK7 expressed in Escherichia coli (BL21(DE3) pLysS) co-expressing human MEKK catalytic domain using biotinylated and GST-tagged rat GST-KN-SAPKalpha substrate incubated for 1 hr by time-resolved fluorescence based assay
T1 sequence (O14733 whole entry): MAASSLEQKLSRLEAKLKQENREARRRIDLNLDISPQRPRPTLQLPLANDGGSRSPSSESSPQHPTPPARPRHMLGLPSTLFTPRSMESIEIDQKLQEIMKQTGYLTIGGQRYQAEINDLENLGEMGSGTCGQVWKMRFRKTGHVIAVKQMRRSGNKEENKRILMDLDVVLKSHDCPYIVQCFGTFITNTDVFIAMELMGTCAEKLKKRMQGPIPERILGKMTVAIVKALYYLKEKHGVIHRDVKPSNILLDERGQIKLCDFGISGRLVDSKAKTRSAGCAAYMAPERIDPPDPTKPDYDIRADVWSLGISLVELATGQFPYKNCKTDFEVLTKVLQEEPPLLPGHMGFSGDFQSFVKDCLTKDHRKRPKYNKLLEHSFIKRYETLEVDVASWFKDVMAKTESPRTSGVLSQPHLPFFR

`NC(=O)c1ccc2[nH]c3ncnc(-c4ccc(F)cc4)c3c2c1` was tested. Which IC50 did it give?
The IC50 was at most 1000 nM.

`CN(C)c1ccc(-c2ncnc3[nH]c4ccc(C(N)=O)cc4c23)cc1` was tested. Which IC50 did it give?
Its IC50 is 1000 nM.

With `NC(=O)c1ccc2[nH]c3ncnc(-c4ccccc4)c3c2c1` as the compound, how does the IC50 read?
The IC50 was at most 1000 nM.

For `Oc1ccc2[nH]c3ncnc(-c4ccccc4)c3c2c1`, which IC50 is on record?
The IC50 was at most 1000 nM.

For `NC(=O)c1ccc2[nH]c3nc(N)nc(-c4ccccc4)c3c2c1`, which IC50 is on record?
The IC50 was at most 1000 nM.

For `Oc1ccc2[nH]c3ncnc(-c4ccc(F)cc4)c3c2c1`, which IC50 is on record?
Its IC50 is at most 1000 nM.

For `COc1ccc(-c2ncnc3[nH]c4ccc(O)cc4c23)cc1`, which IC50 is on record?
The IC50 was at most 1000 nM.
